Patent EP3708565A1, “PYRIMIDINYLOXYPHENYLAMIDINES AND THE USE THEREOF AS FUNGICIDES” (Bayer AG, priority 2020, dated 2020)

Assays:
Puccinia recondita = experiment: in vivo preventive test on Puccinia recondita (brown rust on wheat); conditions: for pest or weed control at 500 ppm: Puccinia recondita, 264 h, 500 ppm of active ingredient, young wheat plants sprayed, inoculated after 24 hours, evaluated 11 days after the inoculation, read-out: efficacy; for efficacy: 500 ppm
Protocol: Example: in vivo preventive test on Puccinia recondita (brown rust on wheat)
(§1) The active ingredients were made soluble and homogenized in a mixture of Dimethyl sulfoxide/Acetone/ /Tween® 80 and then diluted in water to the desired concentration.
The young plants of wheat were treated by spraying the active ingredient prepared as described above. Control plants were treated only with an aqueous solution of Acetone/Dimethyl sulfoxide/ Tween® 80.
After 24 hours, the plants were contaminated by spraying the leaves with an aqueous suspension of Puccinia recondita spores. The contaminated wheat plants were incubated for 24 hours at 20°C and at 100% relative humidity and then for 10 days at 20°C and at 70-80% relative humidity.
The test was evaluated 11 days after the inoculation. 0% means an efficacy which corresponds to that of the control plants while an efficacy of 100% means that no disease was observed.

[1] = LogP measurement by HPLC on reversed phase columns (EEC directive 79/831 Annex V.A8); format: physicochemical
Protocol: If more than one LogP value is available within the same method, all the values are given and separated by "+".
Lambda-max-values were determined using UV-spectra from 200 nm to 400 nm and the peak values of the chromatographic signals.

Phakospora pachyrhizi = experiment: in vivo preventive test on Phakospora pachyrhizi (soybean rust); conditions: for pest or weed control at 500 ppm: Glycine max, 288 h, 500 ppm of active ingredient, young soybean plants sprayed, inoculated after 24 hours, evaluated 12 days after the inoculation, read-out: efficacy; for efficacy: 500 ppm
Protocol: Example: in vivo preventive test on Phakospora pachyrhizi (soybean rust)
as §1
The young plants of soybean were treated by spraying the active ingredient prepared as described above. Control plants were treated only with an aqueous solution of Acetone/Dimethyl sulfoxide/ […].
After 24 hours, the plants were contaminated by spraying the leaves with an aqueous suspension of Phakosporapachyrhizi spores. The contaminated soybean plants were incubated for 24 hours at 24°C and at 100% relative humidity and then for 11 days at 24°C and at 70-80% relative humidity.
The test was evaluated 12 days after the inoculation. 0% means an efficacy which corresponds to that of the control plants while an efficacy of 100% means that no disease was observed.

Sphaerotheca fuliginea = experiment: in vivo preventive test on Sphaerotheca fuliginea (powdery mildew on cucurbits); conditions: 500 ppm of active ingredient, young gherkin plants sprayed, inoculated after 24 hours, evaluated 8 days after the inoculation; for pest or weed control at 500 ppm: Podosphaera fuliginea, 192 h, read-out: efficacy
Protocol: Example: in vivo preventive test on Sphaerotheca fuliginea (powdery mildew on cucurbits)
as §1
The young plants of gherkin were treated by spraying the active ingredient prepared as described above. Control plants were treated only with an aqueous solution of Acetone/Dimethyl sulfoxide/ […].
After 24 hours, the plants were contaminated by spraying the leaves with an aqueous suspension of Sphaerotheca fuliginea spores. The contaminated gherkin plants were incubated for 8 days at 20°C and at 70-80% relative humidity.
The test was evaluated 8 days after the inoculation. 0% means an efficacy which corresponds to that of the control plants while an efficacy of 100% means that no disease was observed.

[2] = reversed phase HPLC column, method [a]: LC-UV, acidic range, 0.1% formic acid in water and acetonitrile as eluent
[3] = reversed phase HPLC column, method [b]: LC-UV, neutral range, 0.001 molar ammonium acetate solution in water and acetonitrile as eluent
[4] = method [a]: LC-UV, acidic range, 0.1% formic acid in water and acetonitrile as eluent
[5] = method [b]: LC-UV, neutral range, 0.001 molar ammonium acetate solution in water and acetonitrile as eluent

Row | Compound | pest or weed control at 500 ppm (Puccinia recondita) | chromatographic logP [1, 2] | chromatographic logP [1, 3] | pest or weed control at 500 ppm (Phakospora pachyrhizi) | pest or weed control at 500 ppm (Sphaerotheca fuliginea) | efficacy (Puccinia recondita) | chromatographic logP [1, 4] | chromatographic logP [1, 5] | efficacy (Phakospora pachyrhizi) | efficacy (Sphaerotheca fuliginea)
1 | CCN(C)C=Nc1cc(C)c(Oc2ccnc(SC(C)(C)C)n2)cc1Cl [I.045, N'-[4-(2-tert-butylsulfanylpyrimidin-4-yl)oxy-2-chloro-5-methylphenyl]-N-ethyl-N-methyl-methanimidamide] | ≥ 70% | 1.63 | 4.5 | ≥ 70% | ≥ 70% |  |  |  |  | 
2 | CCN(C)C=Nc1cc(C)c(Oc2ccnc(SCc3ccccc3)n2)cc1C [I.042, N'-[4-(2-benzylsulfanylpyrimidin-4-yl)oxy-2,5-dimethylphenyl]-N-ethyl-N-methylmethanimid-amide] |  |  |  |  |  | at least 70% | 1.63 | 4.82 | at least 70% | at least 70%
3 | CCSc1nccc(Oc2cc(C)c(N=CN(C)CC)cc2Br)n1 [I.016, N'-[5-bromo-4-(2-ethylsulfanylpyrimidin-4-yl)oxy-2-methylphenyl]-N-ethyl-N-methylmethan-imidamide] | ≥ 70% | 1.46 | 4.44 | ≥ 70% | ≥ 70% |  |  |  |  | 
4 | CCN(C)C=Nc1cc(C#N)c(Oc2ccnc(C(C)(C)C)n2)cc1C [I.044, N'-[4-(2-tert-butylpyrimidin-4-yl)oxy-5-cyano-2-methylphenyl]-N-ethyl-N-methylmethanimid-amide] |  |  |  |  |  | at least 70% | 1.41 | 4.29 | at least 70% | at least 70%
5 | CCN(C)C=Nc1cc(C)c(Oc2ccnc(SC3CCCCC3)n2)cc1C [I.011, N'-[4-(2-cyclohexylsulfanylpyrimidin-4-yl)oxy-2,5-dimethylphenyl]-N-ethyl-N-methylmethan-imidamide] | ≥ 70% | 1.86 |  | ≥ 70% | ≥ 70% |  |  |  |  | 
6 | CCN(C)C=Nc1cc(C)c(Oc2cc(C)nc(SC(C)C)n2)cc1C [I.022, N'-[2,5-dimethyl-4-(6-methyl-2-propan-2-ylsulfanylpyrimidin-4-yl)oxyphenyl]-N-ethyl-N-methylmethanimidamide] | ≥ 70% | 1.69 |  | ≥ 70% | ≥ 70% |  |  |  |  | 
7 | CCN(C)C=Nc1cc(C)c(Oc2ccnc(SCC(F)(F)F)n2)cc1C [I.031, N'-[2,5-dimethyl-4-[2-(2,2,2-trifluoroethylsulfanyl)pyrimidin-4-yl]oxyphenyl]-N-ethyl-N-methylmethanimidamide] | ≥ 70% | 1.52 | 4.37 | ≥ 70% | ≥ 70% |  |  |  |  | 
8 | CCN(C)C=Nc1cc(C)c(Oc2cc(C)nc(SC)n2)cc1C [I.033, N'-[2,5-dimethyl-4-(6-methyl-2-methylsulfanylpyrimidin-4-yl)oxyphenyl]-N-ethyl-N-methyl-methanimidamide] | ≥ 70% | 1.34 | 4.16 | ≥ 70% | ≥ 70% |  |  |  |  | 
9 | CCN(C)C=Nc1cc(C)c(Oc2cc(C)nc(SCC(C)C)n2)cc1C [I.021, N'-[2,5-dimethyl-4-[6-methyl-2-(2-methylpropylsulfanyl)pyrimidin-4-yl]oxyphenyl]-N-ethyl-N-methylmethanimidamide] | ≥ 70% | 1.84 |  | ≥ 70% | ≥ 70% |  |  |  |  | 
10 | CCN(C)C=Nc1cc(C)c(Oc2ccnc(Sc3ccc(F)cc3)n2)cc1C [I.010, N-ethyl-N'-[4-[2-(4-fluorophenyl)sulfanylpyrimidin-4-yl]oxy-2,5-dimethylphenyl]-N-methyl-methanimidamide] | ≥ 70% | 1.6 |  | ≥ 70% | ≥ 70% |  |  |  |  | 
